Results from US9345245B2, “Synthetic compounds for vegetative ABA responses” (THE REGENTS OF THE UNIVERSITY OF CALIFORNIA, priority 2012, dated 2016).

Key:
[1] = system: Physcomitrella patens protonema; assay: Protonema growth of moss; assay type: in vivo; details: 200 μM, 10 days
Procedure: FIG. 17. The effect of ABA and its agonists in Physcomitrella patens and Chlamydomonas. Protonemal growth images (A) and quantitative analysis (B) of the effects of ABA and agonists on Phsycomitrella patens. Protonema were grown on 200 μM of specific test chemical for 10 days. […] Pyrabactin bleached protonema. (C) The expression of ABA-responsive genes of Physcomitrella patens. Protonema were treated with 200 μM chemical solutions for 3 h. (D) Colony growth of Chlamydomonas on the chemical with salinity stress and osmotic stress. There was no effect of ABA and LC66C6 on the Chlamydomonas growth with and without stresses.

[2] = system: PYR/PYL receptors; assay: Yeast two-hybrid agonist assay (PYR/PYL receptor - PP2C HAB1 interaction); assay type: cell-based, Arabidopsis; details: 5 uM of test chemicals
Procedure: FIG. 1. Novel ABA agonists bind to multiple PYR/PYL. (A) Chemical structure of naturally occurring (+)-ABA, its (-) analog and selected ABA agonists. (B) Yeast two-hybrid agonist assays of PYR/PYL receptor sensitivity to 5 uM of test chemicals. Specific PYR/PYL Receptors and the PP2C HAB1 are expressed as Gal4 BD or AD fusion proteins respectively, as described in the text. A previously described yeast two-hybrid system was used in high throughput screens (HTS) to identify ABA agonists (see, Peterson F C, et al. (2010) Structural basis for selective activation of ABA receptors. Nature Structural & Molecular Biology 17(9):1109-1111). In this system the agonist promoted receptor-PP2C interaction drives expression of a URA3 or HIS3 reporter gene and rescues uracil or histidine auxotrophy of parental strains (Peterson F C, et al. (2010); […], Harlow E, & Boeke J D (1996) Reverse two-hybrid and one-hybrid systems to detect dissociation of protein-protein and DNA-protein interactions. Proceedings of the National Academy of Sciences of the United States of America 93(19):10315-10320). HTS were conducted using 5 different reporter strains that express binding domain (BD) fusions to […]3 or PYL4; these were co-expressed with activation domain (AD) fusions to HAB1 (pACT-HAB1); the constructs used have been described previously (Park et al. 2009). […]

[3] = system: ABA-responsive genes; assay: ATH1 microarray analysis of seedlings; assay type: in vivo, Arabidopsis; details: wild-type seedlings; 25 μM
Procedure: FIG. 9. LC66C6 induces numerous ABA-responsive genes. […] Ten-day old seedlings were treated with carrier solvent (DMSO) or either 25 μM ABA, pyrabactin or LC66C6 for 8 hours. Total RNA was then prepared labeled and hybridized to ATH1 microarrays. Data plotted are log 2 transformed average expression values for ˜13K probes that were detectable across all experiments. Data shown are averages determined from triplicate biological replicates. (C) and (D) show the expression of a reporter gene in different plant tissues after treatment with vehicle (DMSO), pyrabactin, LC66C6, or (+)-ABA.
Total RNA was isolated using RNAeasy Plant Mini Kit (Qiagen, USA) according to the manufacturer's instructions. cDNA synthesis, labeling and hybridization to the Arabidopsis ATH1 chips (Affymetrix, USA) were performed by the IIGB Core Instrumentation Facility of University of California at Riverside using Affymetrix protocols. Biological triplicate samples were hybridized for DMSO controls, ABA, pyrabactin and quinabactin treatments; compound were applied at 25 μM final concentration and RNA prepared from frozen tissue after 6 hours exposure to compounds or controls. Expression signals for probe sets were calculated and normalized by MASS Statistical Algorithm (Affymetrix, USA). Experimental filtering of array data was performed for the presence of signal in all experiments. […]

With `O=S(=O)(NCc1ccccn1)c1ccc(Br)c2ccccc12` [pyrabactin] the “bleaching of protonema (toxicity)” value [1] was “bleached the protonema”, the “receptor selectivity in yeast two-hybrid assay” value [2] was “much greater receptor selectivity than ABA or the new agonist LC66C6” and the “genome-wide gene expression pattern compared with ABA” value [3] was “did not induce an expression pattern similar to that of ABA”.
